# Experimental data: patent US7067155B2, “Anti-inflammatory humate compositions and methods of use thereof” (TBNI, Inc., priority 2003, dated 2006)
# System: carrageenan-induced edema
# Experiment: Carrageenan-induced hind paw edema in rats, humate in chow for 37 days with or without indomethacin (Example 3)
# Format: in vivo, rat
# Settings: indomethacin only, 3 mg/kg subcutaneously 30 min before carrageenan; P<0.05
# Source text: Male Sprague Dawley rats weighing approximately 50 g were purchased from Harlan U.S. and housed in wire cages in the animal facility at Mercer University School of Pharmacy. The animals were given a short period of time to acclimate to the new environment and received powdered rat chow from Purina and water ad libitum. At the beginning of the experimental period, the rats were divided into six groups of eight each. Control and indomethacin only groups received only powdered rat chow for the entire length of the experiment. For the four other groups, insoluble granular Menefee Humate® was mixed with the powdered rat chow and placed in feeders. Rats received chow with either 0.1%, 0.5% or 1.0% insoluble, granular Menefee Humate® by weight. After 37 days of receiving humate in their food, the animals weighed approximately 278 g, which in an appropriate size for inducing inflammation. An amount of indomethacin sufficient to achieve 50% inhibition of carrageenan-induced edema (3 mg/kg) was administered to the indomethacin only group and to the 0.1% humate plus indomethacin group. The indomethacin was administered subcutaneously 30 minutes before the administration of carageenan. The rats were then injected in one hind paw with carrageenan (2%). After three hours, the hind paws were measured by mercury displacement.
structure (smiles),measurement,value
COc1ccc2c(c1)c(CC(=O)O)c(C)n2C(=O)c1ccc(Cl)cc1 [indomethacin],inhibition of carrageenan-induced edema,~50%
